For two compounds, IC50 and Activity results are on record in ChEMBL document CHEMBL1153818, “Integration of ligand and structure-based virtual screening for the identification of the first dual targeting agent for heat shock protein 90 (Hsp90) and tubulin” (J Med Chem, 2009).

The source made the active and inactive calls. The rule behind the calls is not given here.

Assay [1] concerns the target Heat shock protein HSP 90-beta (Homo sapiens, UniProt P08238). Nature of the assay: Inhibition of Hsp90 by FP ATP-site binding assay.
In assay [2] the test system is MCF7. Nature of the assay: Induction of ERalpha degradation in human MCF7 cells at 200 uM after 24 hrs by Western blot analysis. It is filed as functional, cell-based.
The species named for another assay is Bos taurus. Nature of the assay: Inhibition of bovine tubulin polymerization.
The subject of assay [3] is MCF7. Nature of the assay: Induction of ERalpha degradation in human MCF7 cells at 1 uM after 24 hrs by Western blot analysis. It is filed as functional, cell-based.

Chain of Heat shock protein HSP 90-beta (P08238 whole entry): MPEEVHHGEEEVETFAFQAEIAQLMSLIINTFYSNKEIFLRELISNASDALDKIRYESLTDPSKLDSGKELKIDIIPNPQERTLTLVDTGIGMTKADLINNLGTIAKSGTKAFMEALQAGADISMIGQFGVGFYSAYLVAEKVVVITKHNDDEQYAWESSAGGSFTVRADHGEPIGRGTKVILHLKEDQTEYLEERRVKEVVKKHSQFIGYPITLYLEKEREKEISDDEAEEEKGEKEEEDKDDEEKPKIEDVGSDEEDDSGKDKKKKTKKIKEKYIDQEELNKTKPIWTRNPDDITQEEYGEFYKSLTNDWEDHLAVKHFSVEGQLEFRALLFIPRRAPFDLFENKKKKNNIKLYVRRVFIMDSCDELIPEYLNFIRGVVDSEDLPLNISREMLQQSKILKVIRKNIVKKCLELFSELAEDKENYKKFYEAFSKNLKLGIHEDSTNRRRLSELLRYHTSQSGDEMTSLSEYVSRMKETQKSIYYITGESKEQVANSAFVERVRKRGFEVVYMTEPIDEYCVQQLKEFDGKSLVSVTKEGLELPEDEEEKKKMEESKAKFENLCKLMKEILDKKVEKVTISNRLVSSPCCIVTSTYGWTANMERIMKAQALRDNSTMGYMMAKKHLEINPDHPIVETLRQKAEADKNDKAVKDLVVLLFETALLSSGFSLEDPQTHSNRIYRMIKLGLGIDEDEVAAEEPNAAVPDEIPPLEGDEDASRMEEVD

For the compound `COc1cc(C(=O)n2ncc3cc(N)ccc32)cc(OC)c1OC`, the IC50 in assay [1] was 80.8 µM. Further, the outcome in the assay on MCF7 [2] was Active. In addition, the Activity result in the assay listed under Bos taurus is “Dose-dependent effect”.
`C=CCNC1=C2C[C@@H](C)C[C@H](OC)[C@H](O)[C@@H](C)/C=C(\C)[C@H](OC(N)=O)[C@@H](OC)/C=C\C=C(/C)C(=O)NC(=CC1=O)C2=O`: the outcome in the assay with MCF7 [3] was Active.
